Test [1] deals with Saccharomyces cerevisiae. Kind of test: Antibacterial activity against Saccharomyces cerevisiae. Format: functional.
In test [2] the test system is Saccharomyces cerevisiae. As to the kind of experiment: Bactericidal activity against Saccharomyces cerevisiae. Type of test: functional.

Values after ≈ are worked out from the molar mass of the structure shown.

The text below walks through data of ChEMBL document CHEMBL5120750, “Bis-bibenzyls, Bibenzyls, and Terpenoids in 33 Genera of the Marchantiophyta (Liverworts): Structures, Synthesis, and Bioactivity” (2022).

The term MIC denotes the lowest concentration found to suppress growth. As usually defined, the MBC is the smallest concentration meeting the test's criterion for killing. Read a low MBC as greater bactericidal potency. In turn, `Oc1cccc(CCc2ccc(Oc3cc(CCc4cccc(O)c4)cc(O)c3O)cc2)c1` [PERROTETTIN F] returned a minimal inhibitory concentration (MIC) against Saccharomyces cerevisiae [1] of 0.98 µg/mL (≈ 2.21 µM). In addition, the minimal bactericidal concentration (MBC) with Saccharomyces cerevisiae [2] was found to be 0.98 µg/mL (≈ 2.21 µM).
Regarding `Oc1cc2cc(c1O)Oc1ccc(cc1)CCc1cccc(O)c1Oc1cccc(c1)CC2` [MARCHANTIN A], the MIC in the test with Saccharomyces cerevisiae [1] came to 0.98 µg/mL (≈ 2.22 µM). Moreover, the minimal bactericidal concentration (MBC) with Saccharomyces cerevisiae [2] turned out to be 0.98 µg/mL (≈ 2.22 µM).
